According to patent US7118895B2, “Process for producing aglycon by using diglycosidase and flavor-improved food containing the aglycon and converting agent to be used in the process” (Amano Enzyme Inc., priority 2000, dated 2006):

Test system: Crude diglycosidase
Assay: Examination of pH in the conversion into isoflavone aglycons by diglycosidase using soybean materials
Format: biochemical, Penicillium multicolor IAM7153
Parameters: Decomposition efficiency of genistin family in soymilk / Decomposition efficiency of genistin family in defatted soybean / Decomposition efficiency of daidzin family in defatted soybean: concentration or dose not given beside the values
Details: for Decomposition efficiency of genistin family in roasted soy flour: 55° C.
Method in brief: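 HPLC detection of isoflavone glycosides and aglycons after ethanol quench at 0, 1, 3 and 6 h. Reactions ran at 55° C over pH 2–11, with crude diglycosidase (enzyme solution at 1.88 AU/mL) added to suspended roasted soy flour, soymilk, defatted soybean or concentrated soy protein.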

[1] = pH4.8, heat treatment of enzyme: no, reaction time 0 h
[2] = pH4.8, heat treatment of enzyme: no, reaction time 1 h
[3] = pH4.8, heat treatment of enzyme: no, reaction time 3 h
[4] = pH4.8, heat treatment of enzyme: no, reaction time 6 h
[5] = pH4.8, heat treatment of enzyme: yes, reaction time 6 h
[6] = pH6.6, heat treatment of enzyme: no, reaction time 0 h
[7] = pH6.6, heat treatment of enzyme: no, reaction time 1 h
[8] = pH6.6, heat treatment of enzyme: no, reaction time 3 h
[9] = pH6.6, heat treatment of enzyme: no, reaction time 6 h
[10] = pH6.6, heat treatment of enzyme: yes, reaction time 6 h

SMILES: O=C(O)CC(=O)OC[C@H]1O[C@@H](Oc2cc(O)c3c(=O)c(-c4ccc(O)cc4)coc3c2)[C@H](O)[C@@H](O)[C@@H]1O [malonylgenistin, 6″-O-malonylgenistin]
- Decomposition efficiency of genistin family in concentrated soybean protein (pH1.6, heat treatment of enzyme: no, reaction time 0 h): not detected
- Decomposition efficiency of genistin family in concentrated soybean protein (pH1.6, heat treatment of enzyme: no, reaction time 1 h): not detected
- Decomposition efficiency of genistin family in concentrated soybean protein (pH1.6, heat treatment of enzyme: no, reaction time 3 h): not detected
- Decomposition efficiency of genistin family in concentrated soybean protein (pH1.6, heat treatment of enzyme: no, reaction time 6 h): not detected
- Decomposition efficiency of genistin family in concentrated soybean protein (pH1.6, heat treatment of enzyme: yes, reaction time 6 h): not detected
- Decomposition efficiency of genistin family in roasted soy flour (pH2, heat treatment of enzyme no, reaction time 0 h): not detected
- Decomposition efficiency of genistin family in roasted soy flour (pH2, heat treatment of enzyme no, reaction time 1 h): not detected
- Decomposition efficiency of genistin family in roasted soy flour (pH2, heat treatment of enzyme no, reaction time 3 h): not detected
- Decomposition efficiency of genistin family in roasted soy flour (pH2, heat treatment of enzyme no, reaction time 6 h): not detected
- Decomposition efficiency of genistin family in roasted soy flour (pH2, heat treatment of enzyme yes, reaction time 6 h): not detected
- Decomposition efficiency of genistin family in soymilk (pH2.3, heat treatment of enzyme: no, reaction time 0 h): 58.2%
- Decomposition efficiency of genistin family in soymilk (pH2.3, heat treatment of enzyme: no, reaction time 1 h): 57.5%
- Decomposition efficiency of genistin family in soymilk (pH2.3, heat treatment of enzyme: no, reaction time 3 h): 54.1%
- Decomposition efficiency of genistin family in soymilk (pH2.3, heat treatment of enzyme: no, reaction time 6 h): 52.1%
- Decomposition efficiency of genistin family in soymilk (pH2.3, heat treatment of enzyme: yes, reaction time 6 h): 54.3%
- Decomposition efficiency of genistin family in defatted soybean (pH2.6, heat treatment of enzyme: no, reaction time 0 h): 43.8%
- Decomposition efficiency of genistin family in defatted soybean (pH2.6, heat treatment of enzyme: no, reaction time 1 h): 44.4%
- Decomposition efficiency of genistin family in defatted soybean (pH2.6, heat treatment of enzyme: no, reaction time 3 h): 45.4%
- Decomposition efficiency of genistin family in defatted soybean (pH2.6, heat treatment of enzyme: no, reaction time 6 h): 43.5%
- Decomposition efficiency of genistin family in defatted soybean (pH2.6, heat treatment of enzyme: yes, reaction time 6 h): 42.0%
- Decomposition efficiency of genistin family in concentrated soybean protein (pH2.7, heat treatment of enzyme: no, reaction time 0 h): not detected
- Decomposition efficiency of genistin family in concentrated soybean protein (pH2.7, heat treatment of enzyme: no, reaction time 1 h): not detected
- Decomposition efficiency of genistin family in concentrated soybean protein (pH2.7, heat treatment of enzyme: no, reaction time 3 h): not detected
- Decomposition efficiency of genistin family in concentrated soybean protein (pH2.7, heat treatment of enzyme: no, reaction time 6 h): not detected
- Decomposition efficiency of genistin family in concentrated soybean protein (pH2.7, heat treatment of enzyme: yes, reaction time 6 h): not detected
- Decomposition efficiency of genistin family in roasted soy flour (pH3, heat treatment of enzyme no, reaction time 0 h): not detected
- Decomposition efficiency of genistin family in roasted soy flour (pH3, heat treatment of enzyme no, reaction time 1 h): not detected
- Decomposition efficiency of genistin family in roasted soy flour (pH3, heat treatment of enzyme no, reaction time 3 h): not detected
- Decomposition efficiency of genistin family in roasted soy flour (pH3, heat treatment of enzyme no, reaction time 6 h): not detected
- Decomposition efficiency of genistin family in roasted soy flour (pH3, heat treatment of enzyme yes, reaction time 6 h): not detected
- Decomposition efficiency of genistin family in defatted soybean (pH3.4, heat treatment of enzyme: no, reaction time 0 h): 43.8%
- Decomposition efficiency of genistin family in defatted soybean (pH3.4, heat treatment of enzyme: no, reaction time 1 h): 41.6%
- Decomposition efficiency of genistin family in defatted soybean (pH3.4, heat treatment of enzyme: no, reaction time 3 h): 36.4%
- Decomposition efficiency of genistin family in defatted soybean (pH3.4, heat treatment of enzyme: no, reaction time 6 h): 30.4%
- Decomposition efficiency of genistin family in defatted soybean (pH3.4, heat treatment of enzyme: yes, reaction time 6 h): 39.8%
- Decomposition efficiency of genistin family in soymilk (pH3.5, heat treatment of enzyme: no, reaction time 0 h): 58.2%
- Decomposition efficiency of genistin family in soymilk (pH3.5, heat treatment of enzyme: no, reaction time 1 h): 27.9%
- Decomposition efficiency of genistin family in soymilk (pH3.5, heat treatment of enzyme: no, reaction time 3 h): 7.5%
- Decomposition efficiency of genistin family in soymilk (pH3.5, heat treatment of enzyme: no, reaction time 6 h): 2.7%
- Decomposition efficiency of genistin family in soymilk (pH3.5, heat treatment of enzyme: yes, reaction time 6 h): 52.7%
- Decomposition efficiency of genistin family in concentrated soybean protein (pH3.7, heat treatment of enzyme: no, reaction time 0 h): not detected
- Decomposition efficiency of genistin family in concentrated soybean protein (pH3.7, heat treatment of enzyme: no, reaction time 1 h): not detected
- Decomposition efficiency of genistin family in concentrated soybean protein (pH3.7, heat treatment of enzyme: no, reaction time 3 h): not detected
- Decomposition efficiency of genistin family in concentrated soybean protein (pH3.7, heat treatment of enzyme: no, reaction time 6 h): not detected
- Decomposition efficiency of genistin family in concentrated soybean protein (pH3.7, heat treatment of enzyme: yes, reaction time 6 h): not detected
- Decomposition efficiency of genistin family in roasted soy flour (pH4, heat treatment of enzyme no, reaction time 0 h): not detected
- Decomposition efficiency of genistin family in roasted soy flour (pH4, heat treatment of enzyme no, reaction time 1 h): not detected
- Decomposition efficiency of genistin family in roasted soy flour (pH4, heat treatment of enzyme no, reaction time 3 h): not detected
- Decomposition efficiency of genistin family in roasted soy flour (pH4, heat treatment of enzyme no, reaction time 6 h): not detected
- Decomposition efficiency of genistin family in roasted soy flour (pH4, heat treatment of enzyme yes, reaction time 6 h): not detected
- Decomposition efficiency of genistin family in defatted soybean [1]: 43.2%
- Decomposition efficiency of genistin family in soymilk [1]: 58.6%
- Decomposition efficiency of genistin family in defatted soybean [2]: 42.8%
- Decomposition efficiency of genistin family in soymilk [2]: 41.0%
- Decomposition efficiency of genistin family in defatted soybean [3]: 37.5%
- Decomposition efficiency of genistin family in soymilk [3]: 23.9%
- Decomposition efficiency of genistin family in defatted soybean [4]: 31.1%
- Decomposition efficiency of genistin family in soymilk [4]: 11.3%
- Decomposition efficiency of genistin family in defatted soybean [5]: 41.7%
- Decomposition efficiency of genistin family in soymilk [5]: 51.9%
- Decomposition efficiency of genistin family in roasted soy flour (pH5, heat treatment of enzyme no, reaction time 0 h): not detected
- Decomposition efficiency of genistin family in roasted soy flour (pH5, heat treatment of enzyme no, reaction time 1 h): not detected
- Decomposition efficiency of genistin family in roasted soy flour (pH5, heat treatment of enzyme no, reaction time 3 h): not detected
- Decomposition efficiency of genistin family in roasted soy flour (pH5, heat treatment of enzyme no, reaction time 6 h): not detected
- Decomposition efficiency of genistin family in roasted soy flour (pH5, heat treatment of enzyme yes, reaction time 6 h): not detected
- Decomposition efficiency of genistin family in concentrated soybean protein (pH5.1, heat treatment of enzyme: no, reaction time 0 h): not detected
- Decomposition efficiency of genistin family in concentrated soybean protein (pH5.1, heat treatment of enzyme: no, reaction time 1 h): not detected
- Decomposition efficiency of genistin family in concentrated soybean protein (pH5.1, heat treatment of enzyme: no, reaction time 3 h): not detected
- Decomposition efficiency of genistin family in concentrated soybean protein (pH5.1, heat treatment of enzyme: no, reaction time 6 h): not detected
- Decomposition efficiency of genistin family in concentrated soybean protein (pH5.1, heat treatment of enzyme: yes, reaction time 6 h): not detected
- Decomposition efficiency of genistin family in defatted soybean (pH5.4, heat treatment of enzyme: no, reaction time 0 h): 43.2%
- Decomposition efficiency of genistin family in defatted soybean (pH5.4, heat treatment of enzyme: no, reaction time 1 h): 48.0%
- Decomposition efficiency of genistin family in defatted soybean (pH5.4, heat treatment of enzyme: no, reaction time 3 h): 44.6%
- Decomposition efficiency of genistin family in defatted soybean (pH5.4, heat treatment of enzyme: no, reaction time 6 h): 39.7%
- Decomposition efficiency of genistin family in defatted soybean (pH5.4, heat treatment of enzyme: yes, reaction time 6 h): 45.8%
- Decomposition efficiency of genistin family in soymilk (pH6.2, heat treatment of enzyme: no, reaction time 0 h): 58.6%
- Decomposition efficiency of genistin family in soymilk (pH6.2, heat treatment of enzyme: no, reaction time 1 h): 52.6%
- Decomposition efficiency of genistin family in soymilk (pH6.2, heat treatment of enzyme: no, reaction time 3 h): 41.2%
- Decomposition efficiency of genistin family in soymilk (pH6.2, heat treatment of enzyme: no, reaction time 6 h): 35.8%
- Decomposition efficiency of genistin family in soymilk (pH6.2, heat treatment of enzyme: yes, reaction time 6 h): 51.5%
- Decomposition efficiency of genistin family in roasted soy flour (pH6.5, heat treatment of enzyme no, reaction time 0 h): not detected
- Decomposition efficiency of genistin family in roasted soy flour (pH6.5, heat treatment of enzyme no, reaction time 1 h): not detected
- Decomposition efficiency of genistin family in roasted soy flour (pH6.5, heat treatment of enzyme no, reaction time 3 h): not detected
- Decomposition efficiency of genistin family in roasted soy flour (pH6.5, heat treatment of enzyme no, reaction time 6 h): not detected
- Decomposition efficiency of genistin family in roasted soy flour (pH6.5, heat treatment of enzyme yes, reaction time 6 h): not detected
- Decomposition efficiency of genistin family in concentrated soybean protein [6]: not detected
- Decomposition efficiency of genistin family in defatted soybean [6]: 47.1%
- Decomposition efficiency of genistin family in concentrated soybean protein [7]: not detected
- Decomposition efficiency of genistin family in defatted soybean [7]: 50.1%
- Decomposition efficiency of genistin family in concentrated soybean protein [8]: not detected
- Decomposition efficiency of genistin family in defatted soybean [8]: 48.3%
- Decomposition efficiency of genistin family in concentrated soybean protein [9]: not detected
- Decomposition efficiency of genistin family in defatted soybean [9]: 46.1%
- Decomposition efficiency of genistin family in concentrated soybean protein [10]: not detected
- Decomposition efficiency of genistin family in defatted soybean [10]: 45.7%
- Decomposition efficiency of genistin family in soymilk (pH7.2, heat treatment of enzyme: no, reaction time 0 h): 57.0%
- Decomposition efficiency of genistin family in soymilk (pH7.2, heat treatment of enzyme: no, reaction time 1 h): 56.9%
- Decomposition efficiency of genistin family in soymilk (pH7.2, heat treatment of enzyme: no, reaction time 3 h): 51.5%
- Decomposition efficiency of genistin family in soymilk (pH7.2, heat treatment of enzyme: no, reaction time 6 h): 46.4%
- Decomposition efficiency of genistin family in soymilk (pH7.2, heat treatment of enzyme: yes, reaction time 6 h): 51.1%
- Decomposition efficiency of genistin family in defatted soybean (pH7.8, heat treatment of enzyme: no, reaction time 0 h): 45.8%
- Decomposition efficiency of genistin family in defatted soybean (pH7.8, heat treatment of enzyme: no, reaction time 1 h): 46.6%
- Decomposition efficiency of genistin family in defatted soybean (pH7.8, heat treatment of enzyme: no, reaction time 3 h): 44.4%
- Decomposition efficiency of genistin family in defatted soybean (pH7.8, heat treatment of enzyme: no, reaction time 6 h): 42.2%
- Decomposition efficiency of genistin family in defatted soybean (pH7.8, heat treatment of enzyme: yes, reaction time 6 h): 39.9%
- Decomposition efficiency of genistin family in roasted soy flour (pH8.5, heat treatment of enzyme no, reaction time 0 h): not detected
- Decomposition efficiency of genistin family in roasted soy flour (pH8.5, heat treatment of enzyme no, reaction time 1 h): not detected
- Decomposition efficiency of genistin family in roasted soy flour (pH8.5, heat treatment of enzyme no, reaction time 3 h): not detected
- Decomposition efficiency of genistin family in roasted soy flour (pH8.5, heat treatment of enzyme no, reaction time 6 h): not detected
- Decomposition efficiency of genistin family in roasted soy flour (pH8.5, heat treatment of enzyme yes, reaction time 6 h): not detected
- Decomposition efficiency of genistin family in concentrated soybean protein (pH8.6, heat treatment of enzyme: no, reaction time 0 h): not detected
- Decomposition efficiency of genistin family in concentrated soybean protein (pH8.6, heat treatment of enzyme: no, reaction time 1 h): not detected
- Decomposition efficiency of genistin family in concentrated soybean protein (pH8.6, heat treatment of enzyme: no, reaction time 3 h): not detected
- Decomposition efficiency of genistin family in concentrated soybean protein (pH8.6, heat treatment of enzyme: no, reaction time 6 h): not detected
- Decomposition efficiency of genistin family in concentrated soybean protein (pH8.6, heat treatment of enzyme: yes, reaction time 6 h): not detected
- Decomposition efficiency of genistin family in soymilk (pH11.6, heat treatment of enzyme: no, reaction time 0 h): 54.2%
- Decomposition efficiency of genistin family in soymilk (pH11.6, heat treatment of enzyme: no, reaction time 1 h): 57.7%
- Decomposition efficiency of genistin family in soymilk (pH11.6, heat treatment of enzyme: no, reaction time 3 h): 52.6%
- Decomposition efficiency of genistin family in soymilk (pH11.6, heat treatment of enzyme: no, reaction time 6 h): 49.5%
- Decomposition efficiency of genistin family in soymilk (pH11.6, heat treatment of enzyme: yes, reaction time 6 h): 47.7%
